# Measured values taken from ChEMBL document CHEMBL1124722, “Synthesis and anticonvulsant activity of 2-benzylglutarimides” (J Med Chem, 1990).
# The source made the active and inactive calls. No cut-off for these calls is given here.
# What was measured:
# Mus musculus [1] = assay: Anticonvulsant activity against maximal electroshock induced seizures (MES) after 0.5 h; Not active up to 300 mg/kg; format: functional, organism-based; set-up: dose 300 mg/kg
# Mus musculus [2] = assay: Anticonvulsant activity against maximal electroshock induced seizures after 4 hr; Not active up to 300 mg/kg.; format: functional, organism-based; set-up: dose 300 mg/kg
# Mus musculus [3] = assay: Anticonvulsant activity against subcutaneous administered Metrazol induced seizures (scMET) after 0.5 hr at 30 mg/kg; Active; format: functional, organism-based; set-up: dose 30 mg/kg
# Mus musculus [4] = assay: Anticonvulsant activity against subcutaneous administered Metrazol induced seizures (scMET) after 4 hr at 300 mg/kg; Active; format: functional, organism-based; set-up: dose 300 mg/kg
# Mus musculus [5] = assay: (§1) The Neurologic toxicity by measuring rotarod test after 0.5 h; Not active up to 300 mg/kg; format: organism-based; set-up: dose 300 mg/kg; details: in vivo
# Mus musculus [6] = assay: (§2) The Neurologic toxicity by measuring rotarod test after 4 hr; Not active up to 300 mg/kg; format: organism-based; set-up: dose 300 mg/kg; details: in vivo
# Mus musculus [7] = assay: Anticonvulsant activity against subcutaneous administered Metrazol induced seizures (scMET) after 4 hr; Not active up to 300 mg/kg; format: functional, organism-based; set-up: dose 300 mg/kg
# Mus musculus [8] = assay: Anticonvulsant activity against subcutaneous administered Metrazol induced seizures (scMET) after 0.5 hr; Not active up to 300 mg/kg; format: functional, organism-based; set-up: dose 300 mg/kg
# Mus musculus [9] = assay: The Neurologic toxicity by measuring rotarod test after 4 hr at 300 mg/kg; Active; format: organism-based; set-up: dose 300 mg/kg; details: in vivo
# Mus musculus [10] = assay: The Neurologic toxicity by measuring rotarod test after 0.5 hr at 300 mg/kg; Active; format: organism-based; set-up: dose 300 mg/kg; details: in vivo
# Mus musculus [11] = assay: as §1; format: functional, organism-based; set-up: dose 300 mg/kg
# Mus musculus [12] = assay: as §2; format: functional, organism-based; set-up: dose 300 mg/kg
# Mus musculus [13] = assay: Anticonvulsant activity against maximal electroshock induced seizures (MES) after 4 hr at 300 mg/kg; Active; format: functional, organism-based; set-up: dose 300 mg/kg
# Mus musculus [14] = assay: Anticonvulsant activity against subcutaneous administered Metrazol induced seizures (scMET) after 0.5 hr at 300 mg/kg; Active; format: functional, organism-based; set-up: dose 300 mg/kg
# Mus musculus [15] = assay: Anticonvulsant activity against maximal electroshock induced seizures (MES) after 0.5 hr at 100 mg/kg; Active; format: functional, organism-based; set-up: dose 100 mg/kg
# Mus musculus [16] = assay: Anticonvulsant activity against subcutaneous administered Metrazol induced seizures (scMET) after 4 hr at 100 mg/kg; Active; format: functional, organism-based; set-up: dose 100 mg/kg
# Mus musculus [17] = assay: The effective dose of compound was tested against maximal electroshock induced seizures after intraperitoneal administration; format: functional; details: ip
# Mus musculus [18] = organism: Mus musculus; assay: Time of peak effect was determined for toxicity; format: organism-based; set-up: unit not given here; details: in vivo
# Mus musculus [19] = assay: The effective dose of compound was tested against subcutaneous administered Metrazol induced seizures after intraperitoneal administration; format: functional
# [20] = The cytotoxicity after intraperitoneal administration; format: organism-based; details: mouse, in vivo, ip
# [21] = Protective index was calculated (TD50/ED50) in MES assay in mice after intraperitoneal administration; format: functional
# [22] = Protective index was calculated (TD50/ED50) in scMET assay in mice after intraperitoneal administration; format: functional
# Mus musculus [23] = organism: Mus musculus; assay: Time of peak effect was determined for activity in MES; format: functional; set-up: unit not given here
# Mus musculus [24] = assay: Anticonvulsant activity against subcutaneous administered Metrazol induced seizures (scMET) after 0.5 hr at 100 mg/kg; Active; format: functional, organism-based; set-up: dose 100 mg/kg
# Mus musculus [25] = assay: The effective dose of compound was tested against maximal electroshock induced seizures after intraperitoneal administration; no protection up to 1050 mg/kg; format: functional, organism-based; set-up: dose 1050 mg/kg
# Mus musculus [26] = assay: Anticonvulsant activity against maximal electroshock induced seizures (MES) after 0.5 hr at 300 mg/kg; Active; format: functional, organism-based; set-up: dose 300 mg/kg
# Mus musculus [27] = organism: Mus musculus; assay: Time of peak effect activity against maximal electroshock induced seizures; format: functional
# Mus musculus [28] = organism: Mus musculus; assay: Time of peak effect toxicity against maximal electroshock induced seizures; format: organism-based; details: in vivo
# Mus musculus [29] = assay: The Neurologic toxicity by measuring rotarod test after 4 hr; No toxicity up to 300 mg/kg; format: organism-based; set-up: dose 300 mg/kg; details: in vivo
# Mus musculus [30] = assay: The effective dose of compound was tested against subcutaneous administered Metrazol induced seizures after intraperitoneal administration.; format: functional
# [31] = Protective index was calculated (TD50/ED50) in MES assay in mice after intraperitoneal administration; […]; format: functional, organism-based
# Mus musculus [32] = organism: Mus musculus; assay: Median hypnotic dose by loss of righting reflex; format: functional
# Mus musculus [33] = assay: The compound was tested for anticonvulsant activity against (subcutaneous administered) Metrazol induced seizures after intraperitoneal administration; format: functional
# Mus musculus [34] = assay: The compound was tested for anticonvulsant activity against (subcutaneous administered) strychnine induced seizures after intraperitoneal administration; format: functional
# Mus musculus [35] = organism: Mus musculus; assay: Median lethal dose was measured after 24 hr; format: functional
# Mus musculus [36] = assay: The effective dose of compound was tested against maximal electroshock induced seizures after oral administration in mice; format: functional
# Rattus norvegicus = assay: The effective dose of compound was tested against subcutaneous administered Metrazol induced seizures in rat.; format: functional; details: sc
# Mus musculus [37] = assay: The effective dose of compound was tested against subcutaneous administered Metrazol induced seizures in mice; format: functional; details: sc
SMILES,Activity (Mus musculus [1]),Activity (Mus musculus [2]),Toxicity (Mus musculus [5]),Toxicity (Mus musculus [6]),Activity (Mus musculus [7]),Activity (Mus musculus [8]),Toxicity (Mus musculus [10]),ED50 (Mus musculus [17]) [mg/kg],TPE (Mus musculus [18]),ED50 (Mus musculus [19]) [mg/kg],TD50 [20] [mg/kg],Ratio [22],TPE (Mus musculus [23]),also measured
CN1C(=O)CCC(Cc2ccc(I)cc2)C1=O (centres undefined),inactive,inactive,Not Active,Not Active,–,–,–,–,–,–,–,–,–,Activity (Mus musculus [3]): Active; Activity (Mus musculus [4]): Active
O=C1CCC(Cc2ccccc2Br)C(=O)N1 (centres undefined),inactive,inactive,–,–,inactive,inactive,Active,–,–,–,–,–,–,Toxicity (Mus musculus [9]): Active
CN1C(=O)CCC(Cc2ccccc2)C1=O (centres undefined),inactive,inactive,Not Active,Not Active,inactive,–,–,–,–,–,–,–,–,–
C[Si](C)(C)c1ccc(CC2CCC(=O)NC2=O)cc1 (centres undefined),inactive,inactive,–,–,inactive,inactive,–,–,–,–,–,–,–,Toxicity (Mus musculus [11]): inactive; Toxicity (Mus musculus [12]): inactive
CC(C)Oc1ccc(CC2CCC(=O)NC2=O)cc1 (centres undefined),inactive,inactive,–,–,inactive,inactive,Active,–,–,–,–,–,–,Toxicity (Mus musculus [9]): Active
CN1C(=O)CCC(Cc2ccc(C(F)(F)F)cc2)C1=O (centres undefined),inactive,–,Not Active,Not Active,–,–,–,–,–,–,–,–,–,Activity (Mus musculus [13]): Active; Activity (Mus musculus [14]): Active; Activity (Mus musculus [4]): Active
O=C1CCC(Cc2ccc(Cl)c(Cl)c2)C(=O)N1 (centres undefined),inactive,inactive,Not Active,Not Active,inactive,inactive,–,–,–,–,–,–,–,–
CN1C(=O)CCC(Cc2ccccc2Br)C1=O (centres undefined),–,inactive,Not Active,Not Active,–,–,–,474,0.5,256,617,2.41,1,Activity (Mus musculus [15]): Active; Activity (Mus musculus [14]): Active; Activity (Mus musculus [16]): Active; Ratio [21]: 1.3
CN1C(=O)CCC(Cc2ccc(Cl)cc2Cl)C1=O (centres undefined),inactive,inactive,Not Active,Not Active,–,–,–,–,2,153,650,4.24,0.5,Activity (Mus musculus [24]): Active; Activity (Mus musculus [16]): Active; ED50 (Mus musculus [25]): no protection up to 1050 mg/kg
O=C1CCC(Cc2ccc(F)cc2)C(=O)N1 (centres undefined),–,inactive,–,Not Active,inactive,–,Active,–,–,–,–,–,–,Activity (Mus musculus [14]): Active
CN1C(=O)CCC(Cc2ccc(Br)cc2)C1=O (centres undefined),–,inactive,Not Active,Not Active,inactive,–,–,162,1.5,143,534,3.72,1,Activity (Mus musculus [26]): Active; Activity (Mus musculus [24]): Active; Ratio [21]: 3.8
O=C1CCC(Cc2ccc(C(F)(F)F)cc2)C(=O)N1 (centres undefined),–,–,–,–,–,–,Active,126,1,119,349,2.92,2,Activity (Mus musculus [26]): Active; Activity (Mus musculus [13]): Active; Activity (Mus musculus [24]): Active; Activity (Mus musculus [4]): Active; Toxicity (Mus musculus [9]): Active; Ratio [21]: 2.76
O=C1CCC(Cc2ccc(Br)cc2)C(=O)N1 (centres undefined),–,–,–,–,–,–,Active,279,–,56.3,513,9.11,–,Activity (Mus musculus [26]): Active; Activity (Mus musculus [13]): Active; Activity (Mus musculus [3]): Active; Activity (Mus musculus [4]): Active; TPE (Mus musculus [27]): 1; TPE (Mus musculus [28]): 1; Toxicity (Mus musculus [29]): No toxicity up to 300 mg/kg; Ratio [21]: 1.84
CCCOc1ccc(CC2CCC(=O)NC2=O)cc1 (centres undefined),inactive,inactive,–,–,inactive,inactive,Active,–,–,–,–,–,–,Toxicity (Mus musculus [9]): Active
CN1C(=O)CCC(Cc2ccc(Cl)cc2)C1=O (centres undefined),–,inactive,–,Not Active,inactive,–,Active,248,1,124,348,2.81,0.5,Activity (Mus musculus [26]): Active; Activity (Mus musculus [24]): Active; Ratio [21]: 1.4
O=C1CCC(Cc2ccc(-c3ccccc3)cc2)C(=O)N1 (centres undefined),inactive,inactive,Not Active,Not Active,inactive,inactive,–,–,–,–,–,–,–,–
CN1C(=O)CCC(Cc2ccc([Si](C)(C)C)cc2)C1=O (centres undefined),inactive,inactive,–,–,inactive,inactive,–,–,–,–,–,–,–,Toxicity (Mus musculus [11]): inactive; Toxicity (Mus musculus [12]): inactive
O=C1CCC(Cc2ccc(Cl)cc2Cl)C(=O)N1 (centres undefined),inactive,inactive,–,–,–,–,Active,–,0.5,–,687,4.29,1,Activity (Mus musculus [14]): Active; Activity (Mus musculus [16]): Active; ED50 (Mus musculus [30]): 160 mg/kg; Toxicity (Mus musculus [9]): Active; Ratio [31]: inactive
CCCC(CCC)C(=O)O [VALPROIC ACID],–,–,–,–,–,–,–,272,–,149,–,–,–,Activity (Mus musculus [27]): 0.25; HD50 (Mus musculus [32]): 885.53 mg/kg; ED50 (Mus musculus [33]): 149 mg/kg; ED50 (Mus musculus [34]): 293 mg/kg; LD50 (Mus musculus [35]): 1100 mg/kg; ED50 (Mus musculus [36]): 665 mg/kg; Time of peak effect (Mus musculus [28]): 0.25; ED50 (Rattus norvegicus): 180 mg/kg; ED50 (Mus musculus [37]): 388 mg/kg
